Reference: EP4759815A1, “FUSED TRICYCLIC COMPOUND, PHARMACEUTICAL COMPOSITION THEREOF, AND USE THEREOF” (Haihe Biopharma Co., Ltd., priority 2023, dated 2025)

How the values were obtained:
[1] = target: Recombinant human PARP1 protein (Homo sapiens, UniProt P09874); experiment: PARP1 inhibitory activity (histone substrate, chemiluminescent ELISA); assay type: biochemical; settings: for IC50: histone substrate, 500 µM NAD+ added to the substrate solution, read-out: PARP1 IC50; for PARP1/2 Fold selectivity: ratio of PARP2 IC50 to PARP1 IC50
Sequence of Recombinant human PARP1 protein (P09874 whole entry): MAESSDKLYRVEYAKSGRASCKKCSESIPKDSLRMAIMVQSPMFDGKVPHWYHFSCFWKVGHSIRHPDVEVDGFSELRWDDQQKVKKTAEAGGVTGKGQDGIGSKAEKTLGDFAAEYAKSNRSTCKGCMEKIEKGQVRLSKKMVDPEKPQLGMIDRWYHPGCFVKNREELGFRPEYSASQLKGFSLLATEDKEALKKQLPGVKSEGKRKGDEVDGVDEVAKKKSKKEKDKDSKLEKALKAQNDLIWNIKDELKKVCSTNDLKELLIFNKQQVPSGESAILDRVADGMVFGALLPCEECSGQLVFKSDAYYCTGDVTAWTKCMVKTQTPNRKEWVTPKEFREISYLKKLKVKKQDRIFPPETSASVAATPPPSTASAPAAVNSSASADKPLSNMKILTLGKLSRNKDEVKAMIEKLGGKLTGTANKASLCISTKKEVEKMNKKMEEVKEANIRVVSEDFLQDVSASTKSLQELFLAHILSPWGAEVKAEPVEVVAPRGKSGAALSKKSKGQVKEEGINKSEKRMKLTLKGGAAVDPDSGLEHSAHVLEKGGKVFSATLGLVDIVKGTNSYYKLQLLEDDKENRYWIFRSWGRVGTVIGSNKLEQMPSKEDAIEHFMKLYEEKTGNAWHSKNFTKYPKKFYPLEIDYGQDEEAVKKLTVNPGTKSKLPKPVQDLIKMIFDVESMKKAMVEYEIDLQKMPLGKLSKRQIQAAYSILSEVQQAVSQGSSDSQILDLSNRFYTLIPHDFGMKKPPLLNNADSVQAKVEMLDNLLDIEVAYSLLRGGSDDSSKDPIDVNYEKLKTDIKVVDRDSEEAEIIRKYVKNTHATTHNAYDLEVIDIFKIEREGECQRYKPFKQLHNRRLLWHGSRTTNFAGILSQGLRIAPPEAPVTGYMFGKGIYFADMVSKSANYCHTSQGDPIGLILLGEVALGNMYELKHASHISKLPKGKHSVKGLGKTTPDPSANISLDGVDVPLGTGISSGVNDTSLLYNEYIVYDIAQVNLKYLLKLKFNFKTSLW

[2] = target: T1, recombinant human PARP2 protein (Homo sapiens, UniProt Q9UGN5); experiment: PARP2 inhibitory activity (histone substrate, chemiluminescent ELISA); assay type: biochemical; settings: histone substrate; read-out: PARP2 IC50
T1 construct: purchased BPS 80502
T1 sequence (Q9UGN5 whole entry): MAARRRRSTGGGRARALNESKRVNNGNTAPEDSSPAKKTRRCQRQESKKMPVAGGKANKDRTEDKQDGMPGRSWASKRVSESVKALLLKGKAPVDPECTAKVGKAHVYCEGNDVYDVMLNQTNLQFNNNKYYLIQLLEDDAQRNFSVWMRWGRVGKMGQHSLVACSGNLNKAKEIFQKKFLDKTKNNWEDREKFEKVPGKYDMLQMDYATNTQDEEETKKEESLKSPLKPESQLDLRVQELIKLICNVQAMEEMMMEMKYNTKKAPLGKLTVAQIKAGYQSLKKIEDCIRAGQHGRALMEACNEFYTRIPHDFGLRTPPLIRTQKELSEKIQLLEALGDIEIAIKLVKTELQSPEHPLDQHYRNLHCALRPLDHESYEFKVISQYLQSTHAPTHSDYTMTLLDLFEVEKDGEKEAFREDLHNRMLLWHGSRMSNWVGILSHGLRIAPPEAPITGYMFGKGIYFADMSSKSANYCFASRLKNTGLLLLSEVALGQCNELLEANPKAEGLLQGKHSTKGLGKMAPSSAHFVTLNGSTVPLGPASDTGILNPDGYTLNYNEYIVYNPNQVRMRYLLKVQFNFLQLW

[3] = target: T2, PDE3A (Homo sapiens, UniProt Q14432); experiment: PDE3A enzyme activity test (IMAP FP); assay type: biochemical; settings: PDE3A protein 0.2 nM, FAM-cAMP 200 nM, 60 minutes at rt; off-target safety
T2 construct: purchased ICE G13020203013
T2 sequence (Q14432 whole entry, species assumed): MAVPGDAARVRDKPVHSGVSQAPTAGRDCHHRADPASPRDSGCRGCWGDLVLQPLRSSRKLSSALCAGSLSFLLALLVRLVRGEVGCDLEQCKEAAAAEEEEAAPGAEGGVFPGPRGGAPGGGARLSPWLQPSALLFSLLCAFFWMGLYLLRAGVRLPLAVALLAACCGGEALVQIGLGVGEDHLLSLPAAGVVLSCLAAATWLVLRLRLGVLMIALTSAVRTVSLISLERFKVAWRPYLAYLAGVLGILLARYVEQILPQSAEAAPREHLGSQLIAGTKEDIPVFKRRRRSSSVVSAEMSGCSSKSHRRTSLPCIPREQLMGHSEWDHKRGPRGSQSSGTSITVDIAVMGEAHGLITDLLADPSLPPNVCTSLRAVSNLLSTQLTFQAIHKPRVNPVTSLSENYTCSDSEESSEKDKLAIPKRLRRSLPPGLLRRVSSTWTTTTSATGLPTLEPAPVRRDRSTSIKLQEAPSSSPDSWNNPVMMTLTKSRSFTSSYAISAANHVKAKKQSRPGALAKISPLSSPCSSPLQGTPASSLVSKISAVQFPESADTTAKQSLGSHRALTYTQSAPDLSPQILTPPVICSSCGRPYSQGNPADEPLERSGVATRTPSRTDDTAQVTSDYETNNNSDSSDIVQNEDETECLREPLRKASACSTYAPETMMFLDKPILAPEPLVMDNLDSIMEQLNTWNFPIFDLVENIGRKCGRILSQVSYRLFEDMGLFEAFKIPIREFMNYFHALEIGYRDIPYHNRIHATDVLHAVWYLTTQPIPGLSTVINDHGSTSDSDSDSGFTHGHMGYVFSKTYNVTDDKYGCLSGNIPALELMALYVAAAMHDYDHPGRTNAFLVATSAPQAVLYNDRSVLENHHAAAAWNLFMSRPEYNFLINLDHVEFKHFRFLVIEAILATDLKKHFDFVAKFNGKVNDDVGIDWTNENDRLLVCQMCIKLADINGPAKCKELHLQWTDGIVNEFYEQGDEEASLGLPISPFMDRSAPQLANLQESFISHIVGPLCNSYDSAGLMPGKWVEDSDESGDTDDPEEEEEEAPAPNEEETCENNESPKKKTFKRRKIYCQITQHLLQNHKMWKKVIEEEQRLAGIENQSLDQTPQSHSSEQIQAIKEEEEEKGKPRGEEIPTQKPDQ

[4] = tested on: MDA-MB-436 cells; experiment: MDA-MB-436 cell proliferation inhibition test (CellTiter-Glo, 7 days); assay type: cell-based; settings: Homo sapiens, MDA-MB-436, 168 h, 7 days incubation
[5] = Preliminary pharmacokinetic tests in mice; assay type: in vivo; settings: male, ICR
[6] = Test of blood-brain barrier properties in rats; assay type: in vivo; settings: male, Wistar Han, brain/plasma; rat, intravenous 1 mg/kg, after 4 h; read-out: Ratio % (brain/blood)

Row | SMILES | IC50 [1] | PARP1/2 Fold selectivity [1] | IC50 [2] | IC50 [4] | other results
1 | CNC(=O)c1ccc(N2CCN(Cc3cc4c5c(cnn5c3)N(C(C)C)C(=O)N4)CC2)c(F)n1 [Compound 55] | 2.64 nM | 382 | 1010 nM |  | 
2 | CNC(=O)c1ccc(N2CCN(Cc3cc4c5c(cnn5c3)N(C3CC3)C(=O)N4)CC2)c(C)n1 [Compound 54] | 0.4 nM | 21.1 | 45.2 nM | < 1.52 nM | IC50 [3]: 428 nM
3 | CNC(=O)c1ccc(N2CCN(Cc3cc4c5c(cnn5C5(CC5)C(=O)N4)c3)C[C@H]2C)c(C)n1 [Compound 40] | 0.23 nM | 353.6 | 81 nM | 17.9 nM | IC50 [3]: 635 nM; AUC(0-t) ([5]; iv, mouse plasma, i.v.(1mg/kg)): 4410 ng·h/mL; clearance ([5]; iv, mouse plasma, i.v.(1mg/kg)): 3.8 mL/min/kg; half-life ([5]; iv, mouse plasma, i.v.(1mg/kg)): 216 min; bioavailability ([5]; plasma, oral, mouse, p.o.(5mg/kg) versus i.v.(1mg/kg)): 124%; AUC(0-t) ([5]; po, mouse plasma, p.o.(5mg/kg)): 31100 ng·h/mL; half-life ([5]; po, mouse plasma, p.o.(5mg/kg)): 186 min
4 | CNC(=O)c1ccc(N2CCN(Cc3cc4c5c(cnn5C5(CC5)C(=O)N4)c3)CC2)c(Cl)n1 [Compound 38] |  |  |  | < 1.52 nM | 
5 | CNC(=O)c1ccc(N2CCN(Cc3cc4c5c(cnn5c3)N(C3CCC3)C(=O)N4)C[C@H]2C)c(C)n1 [Compound 72] | 4.9 nM | 97.6 | 474 nM |  | 
6 | CNC(=O)c1ccc(N2CCN(Cc3cc4c5c(cnn5c3)N(C3CC3)C(=O)N4)CC2)c(F)n1 [Compound 53] | 2.16 nM | 21.1 | 45.5 nM | 2.2 nM | 
7 | CNC(=O)c1ccc(N2CCN(Cc3cc4c5c(cnn5c3)N(CC(F)(F)F)C(=O)N4)CC2)c(C)n1 [Compound 61] |  |  |  | 16.2 nM | IC50 [3]: 1440 nM
8 | CNC(=O)c1ccc(N2CCN(Cc3cc4c5c(cnn5C5(CC5)C(=O)N4)c3)CC2)c(F)n1 [Compound 37] | 0.24 nM | 36.3 | 8.7 nM | < 1.52 nM | 
9 | CCN1C(=O)Nc2cc(CN3CCN(c4ccc(C(=O)NC)nc4F)CC3)cn3ncc1c23 [Compound 33] |  |  |  | < 1.52 nM | 
10 | CC[C@H]1C(=O)Nc2cc(CN3CCN(c4ccc(C(=O)NC)nc4F)CC3)cc3cnn1c23 [Compound 5-1] | 1.35 nM |  |  | 27.4 nM | 
11 | CNC(=O)c1ccc(N2CCN(Cc3cc4c5c(cnn5CC(=O)N4)c3)CC2)c(Cl)n1 [Compound 26] | 0.28 nM | 5150 | 1440 nM |  | 
12 | CCC1C(=O)Nc2cc(CN3CCN(c4ccc(C(=O)NC)nc4Cl)CC3)cc3cnn1c23 (centres unmarked) [Compound 8] |  |  |  | 12.7 nM | 
13 | CCN1C(=O)Nc2cc(CN3CCN(c4ccc(C(=O)NC)nc4C)CC3)cn3ncc1c23 [Compound 30] | 1.24 nM | 170.8 | 211 nM | 2.7 nM | 
14 | CNC(=O)c1ccc(N2CCN(Cc3cc4cnn5c4c(c3F)NC(=O)C53CC3)CC2)c(Cl)n1 [Compound 41] | 0.1 nM | 719 | 71.9 nM | 4.4 nM | 
15 | CCCN1C(=O)Nc2cc(CN3CCN(c4ccc(C(=O)NC)nc4C)CC3)cn3ncc1c23 [Compound 62] | 3.3 nM | 422.3 | 1400 nM | 20.9 nM | 
16 | CCC1C(=O)Nc2cc(CN3CCN(c4ccc(C(=O)NC)nc4F)CC3)cc3cnn1c23 (centres unmarked) [Compound 5] | 0.78 nM |  |  | 15.4 nM | 
17 | CNC(=O)c1ccc(N2CCN(Cc3cc4c5c(c3)ncn5C(C3CCC3)C(=O)N4)CC2)c(Cl)n1 (centres unmarked) [Compound 81] | 4.2 nM | 574.1 | 2410 nM | 4.6 nM | 
18 | CNC(=O)c1ccc(N2CCN(Cc3cc4c5c(cnn5c3)N(C3CCC3)C(=O)N4)CC2)c(C)n1 [Compound 59] |  |  |  | 6.5 nM | IC50 [3]: > 10000 nM
19 | CNC(=O)c1ccc(N2CCN(Cc3cc4c5c(cnn5C(C)C(=O)N4)c3)CC2)c(C)n1 (centres unmarked) [Compound 7] |  |  |  |  | Kp at 4 h [6]: 0.138
20 | CNC(=O)c1ccc(N2CCN(Cc3cc4c5c(cnn5c3)N(CCO)C(=O)N4)CC2)c(C)n1 [Compound 63] | 2.1 nM | 827.4 | 1830 nM | 16.8 nM | 
21 | CNC(=O)c1ccc(N2CCN(Cc3cc4c5c(cnn5[C@H](C)C(=O)N4)c3)CC2)c(Cl)n1 [Compound 6-2] |  |  |  |  | IC50 [3]: 239 nM
22 | CNC(=O)c1ccc(N2CCN(Cc3cc4c5c(cnn5c3)N(C)C(=O)N4)CC2)c(C)n1 [Compound 19] | 1.42 nM | 516 | 732 nM | < 1.52 nM | IC50 [3]: 433 nM
